Test results as given in patent US20220169989A1, “HUMAN CARDIOMYOCYTE SEPARATION REAGENT, CULTURE MEDIUM, SEPARATION METHOD, AND CULTURE METHOD” (FUWAI HOSPITAL CHINESE ACADEMY OF MEDICAL SCIENCES, priority 2019, published 2022).
In brackets after ≈: the same amount, converted by molar mass.

Key:
[1] = test system: human cardiomyocytes; assay: Human cardiomyocyte isolation test (calcium-free solution); format: cell-based
Method: The cardiomyocyte isolation process generally comprises tissue transport and sectioning, calcium-free perfusion, enzyme solution digestion and cell collection. In the process, the calcium-free Tyrode's solution (calcium-free solution) was the main reagent used in the isolation process, for calcium-free perfusion, enzyme solution digestion and cell collection. The test was conducted in this invention by reference to the cardiomyocyte isolation experimental protocol described in Liang Chen, Guang-ran Guo, Man Rao, Kai Chen, Jiang-ping Song and Sheng-shou Hu, “A Modified Method for Isolation of Human Cardiomyocytes to Model Cardiac Diseases.”, Journal of Translational Medicine (2018). Specific steps were as follows:
An excised left atrial appendage was immediately placed in an organ preservation solution (manufactured by the University of Wisconsin, USA) (about 4° C.), and quickly transferred it to a 60 mm cell culture dish in a super clean bench, an organ preservation solution (about 4° C.) was added, and the culture dish was placed on an ice box pre-cooled in a refrigerator at −20° C. Scissors were used to remove excess fat and trim it, the tissue was adhered to a specimen stage, and a microtome (Leica VT1200S, Germany) was used to slice the tissue (300 μm) which was then manually cut into pieces in the super clean bench. The cut atrial appendage pieces were divided into three groups, and the tissues were decalcified three times using the calcium-free solution of the present invention. 15-20 ml calcium-free solution was added to an Erlenmeyer flask for calcium-free perfusion for three times. The Erlenmeyer flask was shaken at room temperature, the calcium-free solution was replaced with fresh one after 2 min and 3 min respectively, and the third calcium-free perfusion time is 4 min. After finishing the calcium-free perfusion, the calcium-free solution was discarded and enzyme solution 1 (preheated to 37° C.) formulated from the corresponding calcium-free solution was added respectively. […] The enzyme solution was collected into a 15 ml centrifuge tube, fresh enzyme solution 1 was added to the Erlenmeyer flask, and digestion was still performed in the water bath kettle. The collected enzyme solution was placed in a pre-cooled 4° C. centrifuge (Eppendorf centrifuge 5804R, Germany) for centrifugation (100×g, 1 min), and the supernatant was discarded, followed by observing whether there were cardiomyocytes in the precipitate at the tube bottom, and determining the proportion of rod-shaped cells. The second digestion is the same as the first digestion. When the rate of rod-shaped cardiomyocytes contained in the precipitate is 70% or more, the enzyme solution 1 was replaced with enzyme solution 2 formulated from the calcium-free solution used in the enzyme solution 1, and digestion was continued. This time, cardiomyocytes in the turbid enzyme solution were collected by centrifugation (4° C., 100×g, 1 min) and then resuspending cells in a 3 ml transport solution.
In the process, the calcium-free solution was a calcium-free solution comprising 5 μM (−)-Blebbistatin, 10 μM (−)-Blebbistatin, and 20 mM BDM, respectively.

[2] = water solubility, known property; cited from earlier work
[3] = test system: human cardiomyocytes; assay: Culture test: concentrations of (−)-Blebbistatin and para-aminoblebbistatin (Example 2.1); format: cell-based
Method: 10% fetal bovine serum, 100 U/ml penicillin and 100 μg/ml streptomycin were added to M199 medium (purchased from Sigma), and the resulting medium was used as the basal medium. The experiment was divided into 9 groups, i.e. 0, 2.5, 5, 10, or 20 μM (−)-Blebbistatin, or 5 μM, 10 μM, 20 μM, or 50 μM para-aminoblebbistatin was added to the basal medium. The isolated human cardiomyocytes were divided into 9 groups, and the cells using 9 culture media were plated on a 48-well cell culture plate precoated with 200 μg laminin, and placed and cultured in a 37° C. cell incubator (with 5% CO2, and a relative saturated humidity of 95%) for 7 days, and the rates of rod-shaped cardiomyocytes were calculated.

[4] = test system: human cardiomyocytes; assay: In vitro culture of isolated human cardiomyocytes after recalcification; format: cell-based; details: 10 μM in isolation and in M199 + 10% FBS culture; cultured for 6 days; higher than 20 mM BDM group, p<0.05
Method: In addition, in order to observe whether the cell states were different when the human cardiomyocytes isolated using two calcium-free solutions (20 mM BDM and 10 μM (−)-Blebbistatin) were cultured in vitro, we performed recalcification on the isolated human cardiomyocytes. Specifically, it was difficult for human cardiomyocytes to survive in an environment without calcium ions, and the present invention adopted a 5-step gradient recalcification method to restore the calcium ion concentration of human cardiomyocytes. The concentration gradients of CaCl2 (with a stock concentration of 30 mM) added to the cell collection solution were 0.08 mM (5 min), 0.25 mM (5 min), 0.5 mM (5 min), 1 mM (5 min), and 1.8 mM (15 min) in order. The human cardiomyocytes isolated in the 20 mM BDM group were cultured using M199 medium with addition of 10% fetal bovine serum (FBS) (note: the concentration percentage of fetal bovine serum in the examples and corresponding figures was volume percentage), 100 U/ml penicillin, 100 μg/ml streptomycin and 20 mM BDM. […]

[5] = test system: human cardiomyocytes; assay: Effect of myosin inhibitors BTS and MYK-461 on survival rate (Example 2.5); format: cell-based; details: MEM-HEPES-GlutaMAX + 10% FBS, p<0.05
Method: In order to explore whether there are other myosin ATPase inhibitors besides BDM and (−)-Blebbistatin that can improve the rate of rod-shaped cardiomyocytes, the effects of (−)-Blebbistatin, BTS, and MYK-461 on the activity of cardiomyocytes were compared. For the isolated human cardiomyocytes, MEM-4-hydroxyethyl piperazine ethanesulfonic acid-GlutaMAX medium comprising 10 μM (−)-Blebbistatin, BTS (at concentrations of 5 μM, 10 μM, 20 μM, 30 μM, 40 μM, or 50 μM, respectively), or MYK-461 (at concentrations of 0.5 μM, 1 μM, 2 μM, 5 μM, 10 μM, or 20 μM, respectively) respectively was used, and 10% fetal bovine serum, 100 U/ml penicillin and 100 μg/ml streptomycin were added to the medium.

[6] = test system: human cardiomyocytes; assay: Effect of coating composition on adherent cardiomyocytes (Example 2.2); format: cell-based; details: 72 hours; for number of rod-shaped cells: medium with 20 mM BDM
Method: 48-well culture plates were coated with the following reagents: laminin (Gibco, product number: 23017015; 50 μg/ml or 200 μg/ml, incubated overnight in a 37° C. incubator, and air dried), fibronectin (Sigma Aldrich, product number: F0895-2 MG; 5 μg/ml or 50 μg/ml, air dried), poly-L-lysine (Sigma Aldrich, product number: P04832-50 ML; 0.01%, incubated at room temperature for 5 min, air dried), and Matrigel (Corning, product number: 354234; incubated at 37° C. for 30 min). The culture medium used in this experiment was obtained by adding 20 mM BDM, 10% fetal bovine serum, 100 U/ml penicillin and 100 μg/ml streptomycin to M199 medium. The isolated cardiomyocytes were plated on coated 48-well culture plates, cultured for 72 hours (h), and photographed under a microscope. 4 fields of view were taken for each group for calculating the average number of rod-shaped cells, and the result was expressed as the mean±standard deviation.

Compound: Cc1ccc2c(c1)C(=O)[C@]1(O)CCN(c3ccccc3)C1=N2 [(−)-Blebbistatin]
- rod-shaped cell morphology after isolation (photomicrographs) ([1]; 5 μM and 10 μM): can maintain the long rod-shaped morphology of human cardiomyocytes
- normalized rod-shaped cell rate ([1]; 5 μM and 10 μM in calcium-free solution, 20 mM BDM group normalized to 1.0, p<0.05): 1.2-1.5
- lengths of human cardiomyocytes isolated ([1]; 5 μM and 10 μM vs 20 mM BDM group, p<0.05): remarkably longer than those in the 20 mM BDM group
- solubility [2]: 10.9 ± 0.9 µM (≈ 3.19 µg/mL)
- state of cardiomyocytes (culture images) ([3]; 5 μM and 10 μM vs 0 μM, after 1 day of culture): remarkably better than in the 0 μM group
- long rod-shaped morphology of cardiomyocytes (culture images) ([3]; 10 μM compared with 5 μM, 1 day, more obvious after 7 days): better maintained the long rod-shaped morphology of cardiomyocytes
- rate of rod-shaped cells ([3]; 2.5, 5, 10, 20 μM vs 0 μM, M199 + 10% FBS, 7 days, p<0.001): remarkably higher than that in the group without (−)-Blebbistatin
- rate of rod-shaped cardiomyocytes [4]: ≥ 80%

Compound: CC(=O)C(C)=NO [BDM, 2,3-butanedione monoxime]
- rod-shaped cell morphology after isolation (photomicrographs) ([1]; 20 mM): not well maintained
- normalized rod-shaped cell rate ([1]; 20 mM in calcium-free solution, reference of the normalization): 1.0

Compound: Cc1ccc(S(=O)(=O)NCc2ccccc2)cc1 [BTS, N-benzyl-p-toluenesulfonamide]
- percentages of rod-shaped cells ([5]; 5-50 μM vs 10 μM (−)-Blebbistatin): significantly lower than the percentage in the (−)-Blebbistatin group

Compound: CC(C)n1c(=O)cc(N[C@@H](C)c2ccccc2)[nH]c1=O [MYK-461]
- percentages of rod-shaped cells ([5]; 0.5-20 μM vs 10 μM (−)-Blebbistatin): significantly lower than the percentage in the (−)-Blebbistatin group

Compound: Cc1ccc2c(c1)C(=O)[C@]1(O)CCN(c3ccc(N)cc3)C1=N2 [para-aminoblebbistatin]
- viability / survival rate of human cardiomyocytes ([3]; 10 μM para-aminoblebbistatin vs 10 μM (−)-Blebbistatin, 7 days): no statistical difference
- survival rate of cardiomyocytes ([3]; 5-50 μM, 7 days): can significantly improve the survival rate of cardiomyocytes

Compound: fibronectin
- number of rod-shaped cells ([6]; coating 5 μg/ml, 50 μg/ml): significantly lower than that in the Matrigel group, 50 μg/ml laminin group and 200 μg/ml laminin group

Compound: laminin
- number of rod-shaped cells ([6]; coating 200 μg/ml): highest number of rod-shaped cells
- adherence and growth of cardiomyocytes ([6]; coating, laminin 50-200 μg/ml): can allow cardiomyocytes to adhere and grow
